Measurements reported in ChEMBL document CHEMBL1255325, “Plasmid-mediated qepA gene among Escherichia coli clinical isolates from Japan” (2008).
Converted amounts (≈) assume the structure as drawn.

Tests used:
[1] = test system: Escherichia coli; test: Antimicrobial activity against Escherichia coli isolate DH10B by agar dilution CLSI method
[2] = test system: Escherichia coli; test: Antimicrobial activity against Escherichia coli MRY05-3283 expressing qepA and rmtB gene by agar dilution CLSI method; type: functional
[3] = test system: Escherichia coli; test: Antimicrobial activity against Escherichia coli MRY04-1060 expressing qepA gene by agar dilution CLSI method; type: functional
[4] = test system: Escherichia coli; test: Ratio of MIC for Escherichia coli DH10B harboring p041060 carrying qepA gene to MIC for Escherichia coli isolate DH10B; type: functional
[5] = test system: Escherichia coli; test: Antimicrobial activity against Escherichia coli DH10B harboring p05283 carrying qepA and rmtB gene by agar dilution CLSI method; type: functional
[6] = test system: Escherichia coli; test: Antimicrobial activity against Escherichia coli DH10B harboring p041060 carrying qepA gene by agar dilution CLSI method; type: functional
[7] = test system: Escherichia coli; test: Ratio of MIC for Escherichia coli DH10B harboring p05283 carrying qepA and rmtB gene to MIC for Escherichia coli isolate DH10B; type: functional

| Molecule | MIC [1] [µg/mL] | MIC [2] [µg/mL] | MIC [3] [µg/mL] | Ratio [4] | MIC [5] [µg/mL] | MIC [6] [µg/mL] | Ratio [7] |
| --- | --- | --- | --- | --- | --- | --- | --- |
| C[C@H]1COc2c(N3CCN(C)CC3)c(F)cc3c(=O)c(C(=O)O)cn1c23.C[C@H]1COc2c(N3CCN(C)CC3)c(F)cc3c(=O)c(C(=O)O)cn1c23.O [LEVOFLOXACIN] | ≤ 0.008 | 128 | 64 | – | – | – | – |
| CCn1cc(C(=O)O)c(=O)c2cc(F)c(N3CCNCC3)cc21 [NORFLOXACIN] | ≤ 0.008 | > 128 | > 128 | 4 | 0.25 (≈ 0.783 µM) | 0.25 (≈ 0.783 µM) | 4 |
| C[C@@H](O)[C@H]1C(=O)N2C(C(=O)O)=C(SCCNC=N)C[C@H]12 [IMIPENEM ANHYDROUS] | 0.25 (≈ 0.835 µM) | 0.13 (≈ 0.434 µM) | 0.13 (≈ 0.434 µM) | – | – | – | – |
| GENTAMICIN | – | > 128 | > 128 | – | > 128 | > 128 | – |
| CC(C)(O/N=C(\C(=O)N[C@@H]1C(=O)N2C(C(=O)[O-])=C(C[n+]3ccccc3)CS[C@H]12)c1csc(N)n1)C(=O)O [CEFTAZIDIME] | 0.25 (≈ 0.457 µM) | 0.5 (≈ 0.915 µM) | 0.5 (≈ 0.915 µM) | – | 0.5 (≈ 0.915 µM) | 0.5 (≈ 0.915 µM) | – |
| NC[C@H]1O[C@H](O[C@H]2[C@H](O)[C@@H](O[C@H]3O[C@H](CO)[C@@H](O)[C@H](N)[C@H]3O)[C@H](N)C[C@@H]2N)[C@H](N)C[C@@H]1O [TOBRAMYCIN] | 0.5 (≈ 1.07 µM) | > 128 | > 128 | – | > 128 | > 128 | – |
| NCC[C@H](O)C(=O)N[C@@H]1C[C@H](N)[C@@H](O[C@H]2O[C@H](CN)[C@@H](O)[C@H](O)[C@H]2O)[C@H](O)[C@H]1O[C@H]1O[C@H](CO)[C@@H](O)[C@H](N)[C@H]1O [AMIKACIN] | 2 (≈ 3.42 µM) | > 128 | > 128 | – | > 128 | > 128 | – |
| CO/N=C(\C(=O)N[C@@H]1C(=O)N2C(C(=O)O)=C(COC(C)=O)CS[C@H]12)c1csc(N)n1 [CEFOTAXIME] | 0.06 (≈ 0.132 µM) | 0.13 (≈ 0.285 µM) | 0.13 (≈ 0.285 µM) | – | 0.06 (≈ 0.132 µM) | 0.06 (≈ 0.132 µM) | – |
